Key:
Conditions in all cases: read-out: Stability
[1] = Metabolic stability in human liver microsomes assessed as compound remaining at 1 uM after 30 mins by HPLC-MS/MS analysis; type: ADME
[2] = Metabolic stability in rat liver microsomes assessed as compound remaining at 1 uM after 30 mins by HPLC-MS/MS analysis; type: ADME
[3] = Metabolic stability in BALB/c mouse liver microsomes assessed as compound remaining at 1 uM after 30 mins by HPLC-MS/MS analysis; type: ADME, Microsome

Row | remaining at 0.5 h, 1 µM [1] | remaining at 0.5 h, 1 µM [2] | remaining at 0.5 h, 1 µM [3] | Compound
1 | 27.5% | 54.5% | 7.6% | O=C(Nc1nc(-c2ccccn2)cs1)c1ccccc1
2 | > 99% | > 99% | 82.4% | O=C(Nc1nc(-c2ccccn2)cs1)c1cccc(Br)c1
3 | 53.8% | 47.8% | 3.71% | O=C(Nc1nc(-c2ccccn2)cs1)c1ccncc1
4 | 24.1% | 64.6% | 1.61% | N#Cc1ccc(C(=O)Nc2nc(-c3ccccn3)cs2)cc1
5 | 8.4% | 42.1% | 1.33% | O=C(Nc1nc(-c2ccccn2)cs1)c1ccc(Cl)cc1
6 | 14.2% | 72.1% | 3.61% | O=C(Nc1nc(-c2ccccn2)cs1)c1ccc(F)cc1

Reference: ChEMBL document CHEMBL3102791, “Synthesis and biological evaluation of 2-aminothiazole derivatives as antimycobacterial and antiplasmodial agents” (Bioorg Med Chem Lett, 2014)
